Experiments:
[1] = system: C-4-I (Cervical Carcinoma); assay: Bliss excess, mean over the matrix (fraction); higher = more synergy
In short: (§1)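 Cell lines in DMEM/F12 or RPMI with 10% FBS were plated in 1536-well plates, held 24 hours at 37°C, 5% CO2, then given two-drug dose matrices for 72 hours (DMSO typically 0.2%). Viability was read by CellTiter-Glo 2.0 luminescence and scaled as inhibition from 0 (vehicle wells) to 1 (blank wells). Combination Emax is the second-highest inhibition in the matrix; Bliss excess is observed combination effect minus expected EA + EB − EA·EB, EA and EB being single-agent effects.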

YH-13 (Glioblastoma) = assay: as above
In short: as §1

SMILES | Bliss excess [1] | Bliss excess (YH-13 (Glioblastoma))
Cn1cnc2c(F)c(Nc3ccc(Br)cc3Cl)c(C(=O)NOCCO)cc21 [Selumetinib] + C[C@@H]1COCCN1C2=NC(=NC(=C2)C3(CC3)[S@](=N)(=O)C)C4=C5C=CNC5=NC=C4 [AZD6738] (first compound max 10 µM, 7x7, partner max 10 µM) | 0.0615 | -0.0485
O=C(c1cc(Cc2n[nH]c(=O)c3ccccc23)ccc1F)N1CCN(C(=O)C2CC2)CC1 [Olaparib] + COc1nnc2ccc(N3CCC(c4ccc(OCCN5CCN(C)C(=O)[C@H]5C)cc4)CC3)nn12 [AZD5153] (first compound max 10 µM, 7x7, partner max 1 µM) | – | -0.0114
Cn1cnc2c(F)c(Nc3ccc(Br)cc3Cl)c(C(=O)NOCCO)cc21 [Selumetinib] + CC(C)n1c(=O)n(C)c2cnc3cc(F)c(-c4ccc(OCCCN5CCCCC5)nc4)cc3c21 [AZD1390] (first compound max 10 µM, 7x7, partner max 0.3 µM) | -0.0078 | -0.0342
COc1nnc2ccc(N3CCC(c4ccc(OCCN5CCN(C)C(=O)[C@H]5C)cc4)CC3)nn12 [AZD5153] + Cc1c2c(nn1C)CSCc1cc(n(C)n1)CSc1cc(c3ccccc3c1)OCCCc1c(C(=O)O)n(C)c3c-2c(Cl)ccc13 [AZD5991] (first compound max 1 µM, 7x7, partner max 1 µM) | 0.0867 | -0.0069
C=CCn1c(=O)c2cnc(Nc3ccc(N4CCN(C)CC4)cc3)nc2n1-c1cccc(C(C)(C)O)n1 [AZD1775] + CCc1c2c(nc3ccc(O)cc13)-c1cc3c(c(=O)n1C2)COC(=O)[C@]3(O)CC [SN-38] (first compound max 1 µM, partner max 0.3 µM) | – | -0.0262
Cc1c2c(nn1C)CSCc1cc(n(C)n1)CSc1cc(c3ccccc3c1)OCCCc1c(C(=O)O)n(C)c3c-2c(Cl)ccc13 [AZD5991] + CC(=O)O[C@H]1C(=O)[C@@]2(C)[C@H]([C@H](OC(=O)c3ccccc3)[C@]3(O)C[C@H](OC(=O)[C@H](O)[C@@H](NC(=O)c4ccccc4)c4ccccc4)C(C)=C1C3(C)C)[C@]1(OC(C)=O)CO[C@@H]1C[C@@H]2O [Paclitaxel] (first compound max 1 µM, 7x7, partner max 3 µM) | – | 0.0246
O=C(c1cc(Cc2n[nH]c(=O)c3ccccc23)ccc1F)N1CCN(C(=O)C2CC2)CC1 [Olaparib] + Cc1c2c(nn1C)CSCc1cc(n(C)n1)CSc1cc(c3ccccc3c1)OCCCc1c(C(=O)O)n(C)c3c-2c(Cl)ccc13 [AZD5991] (first compound max 10 µM, 7x7, partner max 1 µM) | – | -0.0298
O=C(c1cc(Cc2n[nH]c(=O)c3ccccc23)ccc1F)N1CCN(C(=O)C2CC2)CC1 [Olaparib] + CN(CC[C@H](CSC1=CC=CC=C1)NC2=C(C=C(C=C2)S(=O)(=O)NC(=O)C3=CC=C(C=C3)N4CCC(CC4)[C@H](C5=CC=CC=C5C6=CC=C(C=C6)Cl)O)S(=O)(=O)C(F)(F)F)CCO [AZD4320] (first compound max 10 µM, 7x7, partner max 1 µM) | – | 0.0012
O=C(c1cc(Cc2n[nH]c(=O)c3ccccc23)ccc1F)N1CCN(C(=O)C2CC2)CC1 [Olaparib] + CC1(C)CCC(CN2CCN(c3ccc(C(=O)NS(=O)(=O)c4ccc(NCC5CCOCC5)c([N+](=O)[O-])c4)c(Oc4cnc5[nH]ccc5c4)c3)CC2)=C(c2ccc(Cl)cc2)C1 [Venetoclax] (first compound max 10 µM, 7x7, partner max 1 µM) | – | -0.0207
C[C@@H](Oc1cc(-c2cnn(C3CCNCC3)c2)cnc1N)c1c(Cl)ccc(F)c1Cl [Crizotinib] + Cn1cnc2c(F)c(Nc3ccc(Br)cc3Cl)c(C(=O)NOCCO)cc21 [Selumetinib] (first compound max 10 µM, 7x7, partner max 10 µM) | – | -0.0111
CS(=O)(=O)CCNCc1ccc(-c2ccc3ncnc(Nc4ccc(OCc5cccc(F)c5)c(Cl)c4)c3c2)o1 [Lapatinib] + NC1(c2ccc(-c3nc4ccn5c(=O)[nH]nc5c4cc3-c3ccccc3)cc2)CCC1 [MK-2206] (first compound max 10 µM, 7x7, partner max 10 µM) | – | -0.0154
NC1(C(=O)N[C@@H](CCO)c2ccc(Cl)cc2)CCN(c2ncnc3[nH]ccc23)CC1 [Capivasertib] + Cn1cnc2c(F)c(Nc3ccc(Br)cc3Cl)c(C(=O)NOCCO)cc21 [Selumetinib] (first compound max 10 µM, 7x7, partner max 10 µM) | 0.0609 | 0.0235
C[C@@H](Nc1cc(F)cc(F)c1)c1cc(C(=O)N(C)C)cc2c(=O)cc(N3CCOCC3)oc12 [AZD8186] + C1CN(CCC1(C(=O)N[C@@H](CCO)C2=CC=C(C=C2)Cl)N)C3=NC=NC4=C3C=CN4 [AZD5363] (first compound max 10 µM, 7x7, partner max 10 µM) | – | 0.0106
NC1(C(=O)N[C@@H](CCO)c2ccc(Cl)cc2)CCN(c2ncnc3[nH]ccc23)CC1 [Capivasertib] + CC(C)n1c(=O)n(C)c2cnc3cc(F)c(-c4ccc(OCCCN5CCCCC5)nc4)cc3c21 [AZD1390] (first compound max 10 µM, 7x7, partner max 0.3 µM) | -0.027 | -0.0372
Cn1cnc2c(F)c(Nc3ccc(Br)cc3Cl)c(C(=O)NOCCO)cc21 [Selumetinib] + C=CCn1c(=O)c2cnc(Nc3ccc(N4CCN(C)CC4)cc3)nc2n1-c1cccc(C(C)(C)O)n1 [AZD1775] (first compound max 10 µM, partner max 1 µM) | 0.0083 | -0.0489
CC(=O)c1c(C)c2cnc(Nc3ccc(N4CCNCC4)cn3)nc2n(C2CCCC2)c1=O [Palbociclib] + CC1(C)CCC(CN2CCN(c3ccc(C(=O)NS(=O)(=O)c4ccc(NCC5CCOCC5)c([N+](=O)[O-])c4)c(Oc4cnc5[nH]ccc5c4)c3)CC2)=C(c2ccc(Cl)cc2)C1 [Venetoclax] (first compound max 10 µM, 7x7, partner max 1 µM) | -0.0464 | 0.0451
C[C@@H]1COCCN1c1cc(C2([S@](C)(=N)=O)CC2)nc(-c2ccnc3[nH]ccc23)n1 [AZD6738] + Nc1ccn([C@@H]2O[C@H](CO)[C@@H](O)C2(F)F)c(=O)n1 [Gemcitabine] (first compound max 10 µM, 7x7, partner max 0.3 µM) | – | 0.0228
COc1nnc2ccc(N3CCC(c4ccc(OCCN5CCN(C)C(=O)[C@H]5C)cc4)CC3)nn12 [AZD5153] + C[C@@H]1COCCN1C2=NC(=NC(=C2)C3(CC3)[S@](=N)(=O)C)C4=C5C=CNC5=NC=C4 [AZD6738] (first compound max 1 µM, 7x7, partner max 10 µM) | 0.0654 | -0.0157
COc1nnc2ccc(N3CCC(c4ccc(OCCN5CCN(C)C(=O)[C@H]5C)cc4)CC3)nn12 [AZD5153] + Cn1cnc2c(F)c(Nc3ccc(Br)cc3Cl)c(C(=O)NOCCO)cc21 [Selumetinib] (first compound max 1 µM, 7x7, partner max 10 µM) | 0.0398 | -0.0356
Cc1c2c(nn1C)CSCc1cc(n(C)n1)CSc1cc(c3ccccc3c1)OCCCc1c(C(=O)O)n(C)c3c-2c(Cl)ccc13 [AZD5991] + Nc1ccn([C@@H]2O[C@H](CO)[C@@H](O)C2(F)F)c(=O)n1 [Gemcitabine] (first compound max 1 µM, 7x7, partner max 0.3 µM) | – | 0.0143
Cc1nc(-c2cn3c(n2)-c2ccc(-c4cnn(C(C)(C)C(N)=O)c4)cc2OCC3)n(C(C)C)n1 [Taselisib] + O=C(Nc1ccc2[nH]nc(-c3ccncc3)c2c1)[C@@H]1CCN(CC(=O)N2CCN(c3ccc(-c4ncccn4)cc3)CC2)C1 [SCH772984] (first compound max 10 µM, 7x7, partner max 5 µM) | – | -0.0586
CS(=O)(=O)CCNCc1ccc(-c2ccc3ncnc(Nc4ccc(OCc5cccc(F)c5)c(Cl)c4)c3c2)o1 [Lapatinib] + Cn1cnc2c(F)c(Nc3ccc(Br)cc3Cl)c(C(=O)NOCCO)cc21 [Selumetinib] (first compound max 10 µM, 7x7, partner max 10 µM) | – | -0.0095
C=CCn1c(=O)c2cnc(Nc3ccc(N4CCN(C)CC4)cc3)nc2n1-c1cccc(C(C)(C)O)n1 [AZD1775] + Nc1ccn([C@@H]2O[C@H](CO)[C@@H](O)C2(F)F)c(=O)n1 [Gemcitabine] (first compound max 1 µM, partner max 0.3 µM) | – | 0.0208
C[C@@H]1COCCN1c1cc(C2([S@](C)(=N)=O)CC2)nc(-c2ccnc3[nH]ccc23)n1 [AZD6738] + C1CC(C1)(C(=O)[O-])C(=O)[O-].N.N.[Pt+2] [Carboplatin] (first compound max 10 µM, 7x7, partner max 10 µM) | – | -0.0453
C[C@@H](Nc1cc(F)cc(F)c1)c1cc(C(=O)N(C)C)cc2c(=O)cc(N3CCOCC3)oc12 [AZD8186] + CC(=O)c1c(C)c2cnc(Nc3ccc(N4CCNCC4)cn3)nc2n(C2CCCC2)c1=O [Palbociclib] (first compound max 10 µM, 7x7, partner max 10 µM) | – | 0.0183
C[C@@H](Oc1cc(-c2cnn(C3CCNCC3)c2)cnc1N)c1c(Cl)ccc(F)c1Cl [Crizotinib] + CC1=C(C(=CC=C1)Cl)NC(=O)C2=CN=C(S2)NC3=CC(=NC(=N3)C)N4CCN(CC4)CCO [Dasatinib] (first compound max 10 µM, 7x7, partner max 2 µM) | – | 0.107
CC1(C)CCC(CN2CCN(c3ccc(C(=O)NS(=O)(=O)c4ccc(NCC5CCOCC5)c([N+](=O)[O-])c4)c(Oc4cnc5[nH]ccc5c4)c3)CC2)=C(c2ccc(Cl)cc2)C1 [Venetoclax] + CS(=O)(=O)CCNCc1ccc(-c2ccc3ncnc(Nc4ccc(OCc5cccc(F)c5)c(Cl)c4)c3c2)o1 [Lapatinib] (first compound max 1 µM, 7x7, partner max 10 µM) | – | -0.04
CN(CCO)CC[C@H](CSc1ccccc1)Nc1ccc(S(=O)(=O)NC(=O)c2ccc(N3CCC([C@@H](O)c4ccccc4-c4ccc(Cl)cc4)CC3)cc2)cc1S(=O)(=O)C(F)(F)F [AZD4320] + CS(=O)(=O)CCNCc1ccc(-c2ccc3ncnc(Nc4ccc(OCc5cccc(F)c5)c(Cl)c4)c3c2)o1 [Lapatinib] (first compound max 1 µM, 7x7, partner max 10 µM) | – | 0.0183
